The source of these data is patent publication US7939520B2, “Aminoazacyclyl-3-sulfonylindazoles as 5-hydroxytryptamine-6 ligands” (Wyeth LLC, priority 2007, dated 2011).

In this assay the target is T1, human cloned 5-HT6 receptors (Homo sapiens, UniProt P50406).
T1 construct: expressed in transfected cells; host or cells: HeLa cells
Nature of the assay: 5-HT6 binding affinity, [3H]-LSD displacement on membranes of Hela cells.

The mark [1] stands for this setting: [3H]-LSD 3.0 nM, Hela cell membranes, 120 min, room temperature, read-out: 5-HT6 Binding Ki.

pKi: −log10 of the molar value. Read-outs that look alike come from different tables or passages of the source.

T1 sequence (P50406 whole entry): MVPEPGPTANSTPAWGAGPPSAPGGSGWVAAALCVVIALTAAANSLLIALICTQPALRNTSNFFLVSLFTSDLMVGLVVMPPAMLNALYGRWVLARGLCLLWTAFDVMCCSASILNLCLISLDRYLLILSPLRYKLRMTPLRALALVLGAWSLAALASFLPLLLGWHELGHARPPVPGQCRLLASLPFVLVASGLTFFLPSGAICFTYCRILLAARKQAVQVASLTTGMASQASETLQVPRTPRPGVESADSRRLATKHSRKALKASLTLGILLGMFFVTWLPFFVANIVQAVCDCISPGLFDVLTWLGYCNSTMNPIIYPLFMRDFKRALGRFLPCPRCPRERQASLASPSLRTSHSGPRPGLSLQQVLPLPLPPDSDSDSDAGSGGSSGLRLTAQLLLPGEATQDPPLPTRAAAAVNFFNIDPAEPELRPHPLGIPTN

With `CC(C)n1nc(S(=O)(=O)c2cccc3ccccc23)c2cc(N3CC[C@@H](N)C3)ccc21` [Example 16, (R)-1-(1-isopropyl-3-(naphthalen-1-ylsulfonyl)-1H-indazol-5-yl)pyrrolidin-3-amine], the pKi under setting [1] was 7.86. Regarding `CC(C)Cn1nc(S(=O)(=O)c2cccc3ccccc23)c2cc(N3CC[C@@H](N)C3)ccc21` [Example 17, (R)-1-(1-isobutyl-3-(naphthalen-1-ylsulfonyl)-1H-indazol-5-yl)pyrrolidin-3-amine], where the note is “read-out: 5-HT6 Binding Ki”, the negative logarithm of the Ki (pKi) was 7.43. Compound `CC(C)n1nc2ccc(N3CC[C@H](N)C3)cc2c1S(=O)(=O)c1cccc2ccccc12` [Example 19] showed a negative-log Ki (pKi) of 7.31. As for `NC1CCN(c2ccc3[nH]nc(S(=O)(=O)c4cccc(Cl)c4)c3c2)CC1` [Example 5, 1-{3-[(3-chlorophenyl)sulfonyl]-1H-indazol-5-yl}piperidin-4-amine], the pKi (read-out: 5-HT6 Binding Ki) is 8.10. Consider `CN(C)[C@H]1CCN(c2ccc3[nH]nc(S(=O)(=O)c4cccc5ccccc45)c3c2)C1` [Example 13, (S)—N,N-dimethyl-1-(3-(naphthalen-1-ylsulfonyl)-1H-indazol-5-yl)pyrrolidin-3-amine], for which the negative logarithm of the Ki (pKi) under setting [1] was 7.30. For the compound `Cn1nc2ccc(N3CC[C@H](N)C3)cc2c1S(=O)(=O)c1cccc2ccccc12` [Example 18], the negative-log Ki (pKi) was 7.27. For `N[C@H]1CCN(c2ccc3[nH]nc(S(=O)(=O)c4ccccc4)c3c2)C1` [Example 10, (3S)-1-(3-phenylsulfonyl-1H-indazol-5-yl)pyrrolidin-3-amine], the negative-log Ki (pKi) under setting [1] is 6.88. Same read-out and setting: the result for `NC1CN(c2ccc3[nH]nc(S(=O)(=O)c4cccc5ccccc45)c3c2)C1` [Example 8, 1-[3-(1-naphthylsulfonyl)-1H-indazol-5-yl]azetidin-3-amine] reads 8.46; that for `CN(C)[C@@H]1CCN(c2ccc3[nH]nc(S(=O)(=O)c4cccc5ccccc45)c3c2)C1` [Example 12, (R)—N,N-dimethyl-1-(3-(naphthalen-1-ylsulfonyl)-1H-indazol-5-yl)pyrrolidin-3-amine], 8.96. `CC(C)Cn1nc2ccc(N3CC[C@H](N)C3)cc2c1S(=O)(=O)c1cccc2ccccc12` [Example 20] gave a negative-log Ki (pKi) of 7.12.

Consider `N[C@@H]1CCN(c2ccc3[nH]nc(S(=O)(=O)c4ccccc4)c3c2)C1` [Example 11, (3R)-1-(3-phenylsulfonyl-1H-indazol-5-yl)pyrrolidin-3-amine], for which, under setting [1], the negative logarithm of the Ki (pKi) is 6.84. As for `Cn1nc(S(=O)(=O)c2cccc3ccccc23)c2cc(N3CC[C@@H](N)C3)ccc21` [Example 15, (3R)-1-[1-methyl-3-(naphthalen-1-ylsulfonyl)-1H-indazol-5-yl]pyrrolidin-3-amine], the pKi (read-out: 5-HT6 Binding Ki) is 7.68. Turning to `NC1CN(c2ccc3[nH]nc(S(=O)(=O)c4ccccc4)c3c2)C1` [Example 14, 1-(3-(phenylsulfonyl)-1H-indazol-5-yl)azetidin-3-amine], the negative-log Ki (pKi) under setting [1] is 8.96.

For orientation: pKi means −log10 of the Ki, conventionally taken in molar units.
